{"source": "patent US20080085871A1", "about": "“Novel polysaccharide pro-drug 5-fluorouracil (5-FU) with enhanced target specificity for colorectal cancer and its preparation methods” (priority 2006, published 2008)", "key": {"[1]": {"tested_on": "HT-29 cell", "test": "In vitro suppression of HT-29 cell proliferation", "format": "cell-based", "conditions": "Homo sapiens, details not enclosed, read-out: IC50 for suppressing HT-29 cell proliferation", "source_text": "(§1) However, it should be understood that the 5-FU prodrug exerts its efficacy after it is digested and hydrolyzed at the target sites in the body. Because it is a prodrug, it has no direct effect on in vitro colorectal cancer cell lines."}, "[2]": {"tested_on": "normal mice", "test": "Survival of normal mice after 7-day treatment (toxicological effects)", "format": "in vivo", "conditions": "for Survival Rate (%) after 7-day Treatment / Survivors/total after 7-day Treatment: normal mice, n = 10", "procedure": "Normal mice are administered with 7.5, 22.5, or 67.5 mg/kg/d of 5-FU and the 5-FU prodrug (as equivalent 5-FU dose). […]"}, "[3]": {"tested_on": "mice with colorectal cancer induced by DMH-DSS", "test": "Therapeutic effects on mice with colorectal cancer induced by DMH-DSS", "format": "in vivo", "conditions": "22.5 mg/kg/d equivalent 5-FU, two 7-day treatment periods with 7 days rest (21 days)", "source_text": "The doses delivered are equivalent with 1 time per day for 7 days as one treatment period, and then another period of treatment after 7 days of rest (i.e., a total of 21 days, two treatment periods with one week of rest in between)."}, "[4]": {"tested_on": "COLO-205 cell", "test": "In vitro suppression of COLO-205 cell proliferation", "format": "cell-based", "conditions": "Homo sapiens, details not enclosed, read-out: IC50 for suppressing COLO-205 cell proliferation", "source_text": "as §1"}, "[5]": {"test": "Distribution of 5-FU in different parts of the GI tract after oral feeding to mice", "format": "in vivo", "parameters": "key to 5-FU (μg/g) Stomach / 5-FU (μg/g) Proximal Small Intestine / 5-FU (μg/g) Distal Small Intestine / 5-FU (μg/g) Ileum and Cecum / 5-FU (μg/g) Colon and Rectum: —: dashed lines represent undetectable levels of 5-FU", "conditions": "for 5-FU (μg/g) Colon and Rectum / 5-FU (μg/g) Distal Small Intestine / 5-FU (μg/g) Ileum and Cecum / 5-FU (μg/g) Proximal Small Intestine / 5-FU (μg/g) Stomach: oral 22.5 mg/kg, n = 6, x ± s", "source_text": "Note that the dashed lines represent undetectable levels of 5-FU."}, "[6]": {"conditions": "7.5 mg/kg/d (equivalent 5-FU dose)"}, "[7]": {"conditions": "22.5 mg/kg/d (equivalent 5-FU dose)"}, "[8]": {"conditions": "67.5 mg/kg/d (equivalent 5-FU dose)"}}, "data": [{"compound": "O=c1[nH]cc(F)c(=O)[nH]1", "note": "[Example 5-FU, 5-fluorouracil]", "values": [{"measurement": "IC50", "setting": "[1]", "value": 13, "unit": "µM"}, {"measurement": "Survival Rate (%) after 7-day Treatment", "setting": "[2]; [6]", "value": 100, "unit": "%"}, {"measurement": "Survivors/total after 7-day Treatment", "setting": "[2]; [6]", "value": "(10/10)"}, {"measurement": "Survival Rate (%) after 7-day Treatment", "setting": "[2]; [7]", "value": 70, "unit": "%"}, {"measurement": "Survivors/total after 7-day Treatment", "setting": "[2]; [7]", "value": "(7/10)"}, {"measurement": "Survival Rate (%) after 7-day Treatment", "setting": "[2]; [8]", "value": 0, "unit": "%"}, {"measurement": "Survivors/total after 7-day Treatment", "setting": "[2]; [8]", "value": "(0/10)"}, {"measurement": "toxic effects in the first dose", "setting": "[2]; normal mice, 7.5, 22.5, or 67.5 mg/kg/d, first dose", "value": "no obvious toxic effects"}, {"measurement": "Survival at the End of the Study", "setting": "[3]; n = 10", "value": "5/10"}, {"measurement": "Survival Rate", "setting": "[3]; n = 10, listed as Generic 5-Fluorouracil (5-FU)", "value": 50, "unit": "%"}, {"measurement": "Survival Rate", "setting": "[3]; n = 10, listed as generic 5-FU", "value": 50, "unit": "%"}, {"measurement": "Tumor Weight Index", "setting": "[3]; x ± s", "value": "447 ± 113.5", "unit": "mg/g"}, {"measurement": "Tumor Weight as Compared to the Saline Control", "setting": "[3]; listed as Generic 5-Fluorouracil (5-FU)", "value": 65, "unit": "%"}, {"measurement": "Tumor Weight as Compared to the Saline Control", "setting": "[3]; listed as generic 5-FU", "value": 65, "unit": "%"}, {"measurement": "IC50", "setting": "[4]", "value": 3.2, "unit": "µM"}, {"measurement": "main site of distribution / detection in the GI tract", "setting": "[5]; fed orally", "value": "mucosa of stomach and proximal part of the small intestine"}, {"measurement": "5-FU (μg/g) Colon and Rectum", "setting": "[5]; 1 hr", "value": "—"}, {"measurement": "5-FU (μg/g) Distal Small Intestine", "setting": "[5]; 1 hr", "value": "0.42 ± 0.21", "unit": "µg/g"}, {"measurement": "5-FU (μg/g) Ileum and Cecum", "setting": "[5]; 1 hr", "value": "—"}, {"measurement": "5-FU (μg/g) Proximal Small Intestine", "setting": "[5]; 1 hr", "value": "1.75 ± 0.24", "unit": "µg/g"}, {"measurement": "5-FU (μg/g) Stomach", "setting": "[5]; 1 hr", "value": "3.04 ± 0.49", "unit": "µg/g"}, {"measurement": "5-FU (μg/g) Colon and Rectum", "setting": "[5]; 2.5 hr", "value": "0.25 ± 0.12", "unit": "µg/g"}, {"measurement": "5-FU (μg/g) Distal Small Intestine", "setting": "[5]; 2.5 hr", "value": "0.43 ± 0.24", "unit": "µg/g"}, {"measurement": "5-FU (μg/g) Ileum and Cecum", "setting": "[5]; 2.5 hr", "value": "0.37 ± 0.12", "unit": "µg/g"}, {"measurement": "5-FU (μg/g) Proximal Small Intestine", "setting": "[5]; 2.5 hr", "value": "0.64 ± 0.42", "unit": "µg/g"}, {"measurement": "5-FU (μg/g) Stomach", "setting": "[5]; 2.5 hr", "value": "1.97 ± 0.31", "unit": "µg/g"}, {"measurement": "5-FU (μg/g) Colon and Rectum", "setting": "[5]; 3.5 hr", "value": "0.41 ± 0.24", "unit": "µg/g"}, {"measurement": "5-FU (μg/g) Distal Small Intestine", "setting": "[5]; 3.5 hr", "value": "0.62 ± 0.12", "unit": "µg/g"}, {"measurement": "5-FU (μg/g) Ileum and Cecum", "setting": "[5]; 3.5 hr", "value": "0.42 ± 0.21", "unit": "µg/g"}, {"measurement": "5-FU (μg/g) Proximal Small Intestine", "setting": "[5]; 3.5 hr", "value": "0.53 ± 0.32", "unit": "µg/g"}, {"measurement": "5-FU (μg/g) Stomach", "setting": "[5]; 3.5 hr", "value": "1.12 ± 0.46", "unit": "µg/g"}, {"measurement": "5-FU (μg/g) Colon and Rectum", "setting": "[5]; 4.5 hr", "value": "0.56 ± 0.06", "unit": "µg/g"}, {"measurement": "5-FU (μg/g) Distal Small Intestine", "setting": "[5]; 4.5 hr", "value": "0.35 ± 0.21", "unit": "µg/g"}, {"measurement": "5-FU (μg/g) Ileum and Cecum", "setting": "[5]; 4.5 hr", "value": "0.37 ± 0.12", "unit": "µg/g"}, {"measurement": "5-FU (μg/g) Proximal Small Intestine", "setting": "[5]; 4.5 hr", "value": "0.42 ± 0.91", "unit": "µg/g"}, {"measurement": "5-FU (μg/g) Stomach", "setting": "[5]; 4.5 hr", "value": "0.97 ± 0.23", "unit": "µg/g"}, {"measurement": "5-FU (μg/g) Colon and Rectum", "setting": "[5]; 6 hr", "value": "0.17 ± 0.04", "unit": "µg/g"}, {"measurement": "5-FU (μg/g) Distal Small Intestine", "setting": "[5]; 6 hr", "value": "0.31 ± 0.09", "unit": "µg/g"}, {"measurement": "5-FU (μg/g) Ileum and Cecum", "setting": "[5]; 6 hr", "value": "0.21 ± 0.11", "unit": "µg/g"}, {"measurement": "5-FU (μg/g) Proximal Small Intestine", "setting": "[5]; 6 hr", "value": "0.37 ± 0.05", "unit": "µg/g"}, {"measurement": "5-FU (μg/g) Stomach", "setting": "[5]; 6 hr", "value": "0.63 ± 0.31", "unit": "µg/g"}, {"measurement": "5-FU (μg/g) Colon and Rectum", "setting": "[5]; 9 hr", "value": "0.08 ± 0.05", "unit": "µg/g"}, {"measurement": "5-FU (μg/g) Distal Small Intestine", "setting": "[5]; 9 hr", "value": "0.17 ± 0.06", "unit": "µg/g"}, {"measurement": "5-FU (μg/g) Ileum and Cecum", "setting": "[5]; 9 hr", "value": "0.03 ± 0.01", "unit": "µg/g"}, {"measurement": "5-FU (μg/g) Proximal Small Intestine", "setting": "[5]; 9 hr", "value": "0.17 ± 0.04", "unit": "µg/g"}, {"measurement": "5-FU (μg/g) Stomach", "setting": "[5]; 9 hr", "value": "0.33 ± 0.18", "unit": "µg/g"}, {"measurement": "5-FU (μg/g) Colon and Rectum", "setting": "[5]; 12 hr", "value": "0.05 ± 0.02", "unit": "µg/g"}, {"measurement": "5-FU (μg/g) Distal Small Intestine", "setting": "[5]; 12 hr", "value": "0.07 ± 0.04", "unit": "µg/g"}, {"measurement": "5-FU (μg/g) Ileum and Cecum", "setting": "[5]; 12 hr", "value": "0.04 ± 0.02", "unit": "µg/g"}, {"measurement": "5-FU (μg/g) Proximal Small Intestine", "setting": "[5]; 12 hr", "value": "0.03 ± 0.01", "unit": "µg/g"}, {"measurement": "5-FU (μg/g) Stomach", "setting": "[5]; 12 hr", "value": "0.06 ± 0.03", "unit": "µg/g"}, {"measurement": "5-FU (μg/g) Colon and Rectum", "setting": "[5]; 15 hr", "value": "—"}, {"measurement": "5-FU (μg/g) Distal Small Intestine", "setting": "[5]; 15 hr", "value": "—"}, {"measurement": "5-FU (μg/g) Ileum and Cecum", "setting": "[5]; 15 hr", "value": "—"}, {"measurement": "5-FU (μg/g) Proximal Small Intestine", "setting": "[5]; 15 hr", "value": "—"}, {"measurement": "5-FU (μg/g) Stomach", "setting": "[5]; 15 hr", "value": "—"}]}]}
